Results reported in ChEMBL document CHEMBL5316326, “Discovery of a Novel Covalent EZH2 Inhibitor Based on Tazemetostat Scaffold for the Treatment of Ovarian Cancer” (J Med Chem, 2023).
The source made the active and inactive calls. No cut-off for these calls is given here.

Experiments:
[1] = test system: Histone-lysine N-methyltransferase EZH2 (Homo sapiens), Q15910 [A677G]; test: Inhibition of EZH2 […] mutant (unknown origin) at 1 nM by AlphaLlSA assay
[2] = molecular target: T1, Histone-lysine N-methyltransferase EZH2 (Homo sapiens, UniProt Q15910); test: Covalent inhibition of EZH2 (unknown origin) assessed as slow change in dissociation rate preincubated for 60 mins followed by substrate addition and measured upto 90 mins using Mix-GL11 and 3H-SAM as substrate by spin column method; settings: time > 150.0 min
[3] = molecular target: Histone-lysine N-methyltransferase EHMT2 (Homo sapiens) (UniProt Q96KQ7); test: Inhibition of G9a (unknown origin) at 1 to 10 uM by AlphaLlSA assay; settings: dose 1-10 µM
PA-1 [4] = test: Antiproliferative activity against human PA-1 cells assessed as inhibition of cell proliferation incubated for 72 hrs by MTT assay; format: functional, cell-based; settings: PA-1, 72 h
A2780 [5] = test: Antiproliferative activity against human A2780 cells assessed as inhibition of cell proliferation incubated for 72 hrs by MTT assay; format: functional, cell-based; settings: A2780, 72 h
OVCAR-3 = test: Antiproliferative activity against human OVCAR-3 cells assessed as inhibition of cell proliferation incubated for 72 hrs by MTT assay; format: functional, cell-based; settings: OVCAR-3, 72 h
[6] = Antiproliferative activity against human COV362 cells assessed as inhibition of cell proliferation incubated for 72 hrs by MTT assay; format: functional, cell-based; settings: COV362, 72 h
OAW-42 = test: Antiproliferative activity against human OAW-42 cells assessed as inhibition of cell proliferation incubated for 72 hrs by MTT assay; format: functional, cell-based; settings: OAW-42, 72 h
A549 = test: Antiproliferative activity against human A549 cells assessed as inhibition of cell proliferation incubated for 72 hrs by MTT assay; format: functional, cell-based; settings: A549, 72 h
MCF7 = test: Antiproliferative activity against human MCF7 cells assessed as inhibition of cell proliferation incubated for 72 hrs by MTT assay; format: functional, cell-based; settings: MCF7, 72 h
SK-BR-3 = test: Antiproliferative activity against human SK-BR-3 cells assessed as inhibition of cell proliferation incubated for 72 hrs by MTT assay; format: functional, cell-based; settings: SK-BR-3, 72 h
4T1 = test: Antiproliferative activity against mouse 4T1 cells assessed as inhibition of cell proliferation incubated for 72 hrs by MTT assay; format: functional, cell-based; settings: 4T1, 72 h
BT-549 = test: Antiproliferative activity against human BT-549 cells assessed as inhibition of cell proliferation incubated for 72 hrs by MTT assay; format: functional, cell-based; settings: BT-549, 72 h
PA-1 [7] = test: Antiproliferative activity against human PA-1 cells assessed as inhibition of cell proliferation incubated for 3 to 5 days by MTT assay; format: functional, cell-based; settings: time 3-5 day, TDE = time-dependent effect
A2780 [8] = test: Inhibition of colony formation in human A2780 cells assessed as reduction in number of colonies at 0.25 to 10 uM incubated for 14 days with medium change every 3 days by crystal violet staining method; format: functional, cell-based; settings: dose 0.25-10 µM, time 14.0 day
PA-1 [9] = test: Induction of apoptosis in human PA-1 cells assessed as necrotic cells at 10 uM incubated for 48 hrs by AnnexinV-FITC/PI staining based flow cytometry analysis (Rvb= 1.48%); format: functional
PA-1 [10] = test: Induction of apoptosis in human PA-1 cells assessed as necrotic cells at 40 uM incubated for 48 hrs by AnnexinV-FITC/PI staining based flow cytometry analysis (Rvb= 1.48%); format: functional
PA-1 [11] = test: Induction of apoptosis in human PA-1 cells assessed as late apoptotic cells at 5 uM incubated for 48 hrs by AnnexinV-FITC/PI staining based flow cytometry analysis (Rvb= 3.09%); format: functional
PA-1 [12] = test: Induction of apoptosis in human PA-1 cells assessed as early apoptotic cells at 10 uM incubated for 48 hrs by AnnexinV-FITC/PI staining based flow cytometry analysis (Rvb= 6.89%); format: functional
PA-1 [13] = test: Induction of apoptosis in human PA-1 cells assessed as viable cells at 10 uM incubated for 48 hrs by AnnexinV-FITC/PI staining based flow cytometry analysis (Rvb= 88.53%); format: functional; settings: read-out: Activity
PA-1 [14] = test: Induction of apoptosis in human PA-1 cells assessed as viable cells at 20 uM incubated for 48 hrs by AnnexinV-FITC/PI staining based flow cytometry analysis (Rvb= 88.53%); format: functional; settings: read-out: Activity
PA-1 [15] = test: Induction of apoptosis in human PA-1 cells assessed as viable cells at 40 uM incubated for 48 hrs by AnnexinV-FITC/PI staining based flow cytometry analysis (Rvb= 88.53%); format: functional; settings: read-out: Activity
[16] = molecular target: T1, Histone-lysine N-methyltransferase EZH2; test: Inhibition of EZH2 methyltransferase activity in human A2780 cells assessed as reduction in H3K27me3 level at 10 uM and measured upto 4 days by Western blot analysis; format: cell-based; settings: time <= 4.0 day, TDE = time-dependent effect
[17] = molecular target: T1, Histone-lysine N-methyltransferase EZH2; test: Inhibition of EZH2 methyltransferase activity in human PA-1 cells assessed as reduction in H3K27me3 level at 10 uM and measured upto 4 days by Western blot analysis; format: cell-based; settings: time <= 4.0 day, TDE = time-dependent effect
PA-1 [18] = test: Antiproliferative activity against human PA-1 cells assessed as reduction in cell viability at 10 uM incubated for 3 days followed by compound washout and measured after 4 days by microscopy analysis; format: functional, cell-based; settings: time 3.0 day
[19] = Tmax in Sprague-Dawley rat at 5 mg/kg, iv and measured upto 24 hrs by LC-MS/MS analysis; format: ADME, organism-based; settings: in vivo
[20] = Half life in Sprague-Dawley rat at 5 mg/kg, iv and measured upto 24 hrs by LC-MS/MS analysis; format: ADME, organism-based; settings: in vivo
[21] = Volume of distribution at steady state in Sprague-Dawley rat at 5 mg/kg, iv and measured upto 24 hrs by LC-MS/MS analysis; format: ADME, organism-based; settings: in vivo
[22] = MRT(t) in Sprague-Dawley rat at 5 mg/kg, iv and measured upto 24 hrs by LC-MS/MS analysis; format: ADME, organism-based; settings: in vivo
PA-1 [23] = test: Antitumor activity against human PA-1 cells xenografted in BALB/C nude mouse assessed as tumor growth inhibition at 150 mg/kg,po BID for 21 days; format: functional; settings: PA-1, 504 h, time 21 day, read-out: TGI
PA-1 [24] = test: Antitumor activity against human PA-1 cells xenografted in BALB/C nude mouse assessed as increase apoptosis by measuring cleaved caspase-3 positive cells at 75 to 150 mg/kg,po BID for 21 days by immunohistochemical analysis; format: functional, organism-based; settings: dose 75-150 mg/kg, time 21.0 day
[25] = Toxicity in BALB/C nude mouse xenografted with human PA-1 cells assessed as body weight change at 75 to 150 mg/kg,po BID for 21 days; format: organism-based; settings: in vivo, 504 h, dose 75-150 mg/kg, time 21 day
[26] = Toxicity in BALB/C nude mouse xenografted with human PA-1 cells assessed as pathological changes in serum biochemical values at 75 to 150 mg/kg,po BID for 21 days; format: organism-based; settings: in vivo, 504 h, dose 75-150 mg/kg, time 21 day
[27] = Toxicity in BALB/C nude mouse xenografted with human PA-1 cells assessed as pathological changes in liver at 75 to 150 mg/kg,po BID for 21 days by H&E staining based microscopic analysis; format: organism-based; settings: in vivo, 504 h, dose 75-150 mg/kg, time 21 day
[28] = test system: Histone-lysine N-methyltransferase EZH2 (Homo sapiens), Q15910 [Y641F]; settings: dose 10.0 nM
Chain of Histone-lysine N-methyltransferase EZH2 (Homo sapiens), Q15910 [Y641F] (Q15910 whole entry Y641F, looked up): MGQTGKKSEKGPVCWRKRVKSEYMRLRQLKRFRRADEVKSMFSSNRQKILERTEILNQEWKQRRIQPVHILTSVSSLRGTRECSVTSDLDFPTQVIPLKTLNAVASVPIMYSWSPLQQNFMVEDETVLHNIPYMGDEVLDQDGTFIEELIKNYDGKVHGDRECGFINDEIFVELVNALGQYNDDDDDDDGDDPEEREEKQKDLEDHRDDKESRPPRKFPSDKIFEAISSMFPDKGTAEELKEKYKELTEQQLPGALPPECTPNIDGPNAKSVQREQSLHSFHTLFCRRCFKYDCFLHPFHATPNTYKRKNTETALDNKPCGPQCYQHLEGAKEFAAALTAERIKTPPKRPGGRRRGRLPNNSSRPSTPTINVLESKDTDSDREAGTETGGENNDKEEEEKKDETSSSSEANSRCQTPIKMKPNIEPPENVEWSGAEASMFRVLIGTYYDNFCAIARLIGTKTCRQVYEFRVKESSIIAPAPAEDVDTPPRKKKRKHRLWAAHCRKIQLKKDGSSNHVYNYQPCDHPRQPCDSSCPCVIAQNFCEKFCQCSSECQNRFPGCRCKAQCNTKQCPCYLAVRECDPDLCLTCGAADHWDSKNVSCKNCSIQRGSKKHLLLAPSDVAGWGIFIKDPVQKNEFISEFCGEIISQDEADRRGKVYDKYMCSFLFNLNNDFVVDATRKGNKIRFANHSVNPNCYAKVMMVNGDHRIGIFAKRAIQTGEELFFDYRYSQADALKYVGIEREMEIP
Description: Inhibition of EZH2 Y614F mutant (unknown origin) at 10 nM by AlphaLlSA assay

T1 sequence (Q15910 whole entry, looked up): as the sequence (Q15910 whole entry Y641F, looked up) above, with F641Y counted along it
Chain of Histone-lysine N-methyltransferase EHMT2 (Homo sapiens) (Q96KQ7 whole entry): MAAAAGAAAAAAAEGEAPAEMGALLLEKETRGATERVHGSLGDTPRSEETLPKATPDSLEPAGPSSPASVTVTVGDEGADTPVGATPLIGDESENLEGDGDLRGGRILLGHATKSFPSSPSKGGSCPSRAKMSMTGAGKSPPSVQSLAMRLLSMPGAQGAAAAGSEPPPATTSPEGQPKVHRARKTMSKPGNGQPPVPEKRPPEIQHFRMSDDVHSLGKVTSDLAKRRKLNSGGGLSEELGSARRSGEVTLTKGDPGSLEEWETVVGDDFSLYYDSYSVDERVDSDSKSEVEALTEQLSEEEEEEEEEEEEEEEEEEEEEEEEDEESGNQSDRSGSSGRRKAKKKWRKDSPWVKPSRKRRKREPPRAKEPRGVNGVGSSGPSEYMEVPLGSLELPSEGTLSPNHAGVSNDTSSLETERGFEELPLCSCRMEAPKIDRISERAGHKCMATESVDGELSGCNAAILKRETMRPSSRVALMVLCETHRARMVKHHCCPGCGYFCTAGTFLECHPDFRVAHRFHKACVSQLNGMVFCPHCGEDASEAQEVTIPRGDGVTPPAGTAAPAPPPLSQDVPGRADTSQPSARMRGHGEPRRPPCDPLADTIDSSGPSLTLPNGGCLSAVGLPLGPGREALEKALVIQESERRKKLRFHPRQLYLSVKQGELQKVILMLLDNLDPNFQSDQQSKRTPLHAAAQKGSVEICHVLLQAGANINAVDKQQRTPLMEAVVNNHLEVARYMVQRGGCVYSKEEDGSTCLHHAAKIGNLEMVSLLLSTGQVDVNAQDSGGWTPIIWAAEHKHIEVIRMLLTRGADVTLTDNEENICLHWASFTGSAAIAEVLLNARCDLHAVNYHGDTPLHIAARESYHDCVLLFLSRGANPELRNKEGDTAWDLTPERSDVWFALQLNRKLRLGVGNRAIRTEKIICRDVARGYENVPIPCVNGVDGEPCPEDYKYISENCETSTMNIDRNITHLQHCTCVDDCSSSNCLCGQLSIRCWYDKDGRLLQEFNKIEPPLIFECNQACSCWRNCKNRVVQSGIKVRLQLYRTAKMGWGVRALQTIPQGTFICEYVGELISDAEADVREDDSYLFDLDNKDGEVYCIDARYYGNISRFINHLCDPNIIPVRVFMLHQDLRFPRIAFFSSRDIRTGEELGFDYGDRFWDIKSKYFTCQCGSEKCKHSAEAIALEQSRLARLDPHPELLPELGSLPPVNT
Chain of Histone-lysine N-methyltransferase EZH2 (Homo sapiens), Q15910 [A677G] (Q15910 whole entry A677G): as the sequence (Q15910 whole entry Y641F, looked up) above, with F641Y, A677G counted along it

SMILES: C=CC(=O)Nc1ccc(C)c(-c2cc(C(=O)NCc3c(C)cc(C)[nH]c3=O)c(C)c(N(CC)C3CCOCC3)c2)c1
- inhibition [1]: Active
- inhibition [2]: Active
- inhibition [3]: inactive
- IC50 (PA-1 [4]): 10.1 µM
- IC50 (A2780 [5]): 11.2 µM
- IC50 (OVCAR-3): 35.6 µM
- IC50 [6]: > 100 µM
- IC50 (OAW-42): > 100 µM
- IC50 (A549): 28.7 µM
- IC50 (MCF7): 56.2 µM
- IC50 (SK-BR-3): 22.8 µM
- IC50 (4T1): 24.5 µM
- IC50 (BT-549): 18.9 µM
- Activity (PA-1 [7]): Tde
- inhibition (A2780 [8]): Dose-Dependent Effect
- Activity (PA-1 [9]): 0.94%
- Activity (PA-1 [10]): 0.34%
- Activity (PA-1 [11]): 5.21%
- Activity (PA-1 [12]): 22.39%
- viability at 10 µM (PA-1 [13]): 70.5%
- viability at 20 µM (PA-1 [14]): 50.5%
- viability at 40 µM (PA-1 [15]): 10.3%
- inhibition [16]: Tde
- inhibition [17]: Tde
- Activity (PA-1 [18]): Active
- Tmax [19]: 4.8 min
- t1/2 [20]: 36.6 min
- Vdss [21]: 0.20228 L/kg
- MRT(t) [22]: 15.6 min
- inhibition in vivo at 150 mg/kg (PA-1 [23]): 78.2%
- Activity (PA-1 [24]): Active
- Activity [25]: Non-Toxic
- Activity [26]: Non-Toxic
- Activity [27]: Non-Toxic
- inhibition [28]: Active
